Laboratory results from patent publication US6905852B1, “Herbicide-resistant protoporphyrinogen oxidase isolated from Nicotiana tabacum” (Nihon Nohyaku Co., Ltd., priority 1997, dated 2005).

Columns and labels:
Type in all cases: cell-based, Nicotiana tabacum
[1] = tested on: tobacco callus; assay: Sensitivity of tobacco callus to compound H (survival)
Protocol: Tobacco (Nicotiana tabacum CV. Xanthi NC) was grown to 40 cm tall in a green house. And a leaf was cut, and the leaf was cut to square-shape of 5 cm width by a knife, then immersed in 70% ethanol for 30 seconds and in an aqueous solution of sodium hypochlorite (the effective concentration of chlorine was 1%) for 15 minutes to conduct surface-sterilization. After washing it for three times by sterilized water and removal of epidermis, the leaf fragment was suspended in 0.6M manitol (pH 5.8) containing an enzyme solution (1% cellulase onozuka R-10 and 0.05% macerozyme R-10 (manufactured by Yakult Co., Ltd.)) at 26° C. for three hours. After the enzyme treatment, protoplasts were washed with centrifugation by Murasige-Skoog (MS) medium for three times, and the obtained protoplast was suspended into MS solid medium containing 0.6% agar and 1 ppm of NAA and BA, to make a cell number of 10^8/ml, and pored into a dish at 1 cm thick. The protoplast was cultured at 27° C. under darkness to regenerate a callus. Four weeks after the incubation, the agar medium containing a callus grown up to about 1 mm large, was cut to rectangular shape having 1 cm width, and put on MS solid medium containing various concentration of the compound H (4-chloro-3-[2,4-dichloro-5(2-propenyloxy)phenyl]-5-difluoromethoxy-1-methyl-1H-pyrazole, described in Toku Kai Hei 3-163063), and the sensitivity of tobacco callus to photobleaching herbicide was examined. As shoen in Table 1, it become apparent that the callus completely dies at 10 nM.

[2] = tested on: tobacco callus; assay: Selection course of callus lines tolerant to the photobleaching herbicide
Protocol: Using a medium containing the compound H containing two times concentration (20 nM) of the concentration at which tobacco callus completely dies, the selection of tobacco callus tolerant to photobleaching herbicide has been started. 1×10^5 of tobacco callus have been selected (Table 2), in the course of re-generation from 1×10^10 of the protoplast.
number of protoplast given: 1×10^10

[3] = tested on: ETR-253; assay: Accumulation of protoporphyrin IX in callus; settings: 1,200 nM compound H
Protocol: (§1) The present inventors have tried to analyze the resistant mechanism in the resistant strain tolerant to photobleaching herbicide. It has been reported that in a plant treated by photobleaching herbicide, protoporphyrin IX is accumulated, the present inventors tried to measure the accumulation of protoporphyrin IX periodically. A resistant callus which has been subcultured in MS liquid medium containing 1,200 nM of compound H under light condition was cultured for 24 hours in a dark condition, then transplanted into MS liquid medium containing 1,200 nM of compound H, and after 6, 12, 18, 24, 32 and 48 hours later, the callus was collected, and protoporphyrin IX was measured. The extraction and assay of the protoporphyrin 1× from the callus were conducted as follows (Matringe, M. et al. (1989) Biochem, J. 260:231-235.). That is, 500 mg (wet weight) of the callus was homogenized in a mortar, and extracted with 7.5 ml of acetone: 1N NH4OH (9:1). The extract was centrifuged at 3,000×g for 10 minutes, then the supernatant was collected. To the supernatant 2.5 ml of hexane was added and mixed sufficiently, then, the lower layer was recovered. Further, after washing with hexane two twice, the amount of protoporphyrin IX obtained in the lower layer was measured from the value of Ex 405 nm-Em 631.5 nm by a fluorescence spectrophotometer. All the extraction procedures were conducted under the safety light.

[4] = tested on: ETR-056 line; assay: Accumulation of protoporphyrin IX in callus; settings: 1,200 nM compound H
Protocol: as §1

[5] = tested on: ETR-245; assay: Accumulation of protoporphyrin IX in callus; settings: 1,200 nM compound H
Protocol: as §1

[6] = tested on: sensitive cell line; assay: Accumulation of protoporphyrin IX in callus; settings: 1,200 nM compound H

## C=CCOc1cc(-c2nn(C)c(OC(F)F)c2Cl)c(Cl)cc1Cl [compound H, 4-chloro-3-[2,4-dichloro-5(2-propenyloxy)phenyl]-5-difluoromethoxy-1-methyl-1H-pyrazole]
[1]; 2.5 nM
  Survival Rate (%): 30%
[1]; 5 nM
  Survival Rate (%): 10%
[1]; 8 nM (last line of the table)
  Survival Rate (%): 0%
[1]; 10 nM
  Survival Rate (%): 0%
[1]; 20 nM
  Survival Rate (%): 0%
[1]; 40 nM
  Survival Rate (%): 0%
[1]; tobacco callus on MS solid medium
  concentration at which the callus completely dies: 10 nM
[2]; 20 nM, protoplast given 1×10^10
  Number of resistant cell lines: 100,000
[2]; 30 nM
  Number of resistant cell lines: 50,000
[2]; 50 nM
  Number of resistant cell lines: 40,000
[2]; 75 nM
  Number of resistant cell lines: 7,200
[2]; 150 nM
  Number of resistant cell lines: 254
[2]; 300 nM
  Number of resistant cell lines: 120
[2]; 600 nM
  Number of resistant cell lines: 66
[2]; 1200 nM
  Number of resistant cell lines: 46
[2]; 2,400 nM
  Number of resistant cell lines: 36
[2]; 5,000 nM
  Number of resistant cell lines: 0
[3]
  accumulation of protoporphyrin IX: little accumulation
[4]; 24 hours
  amount of protoporphyrin IX: 1.7 μg/g fresh weight
[4]; 48 hours
  amount of protoporphyrin IX: 4.6 μg/g fresh weight
[5]
  accumulation of protoporphyrin IX: little accumulation
[6]; 24 hours
  amount of protoporphyrin IX: 1.3 μg/g fresh weight
[6]; 48 hours
  amount of protoporphyrin IX: 1.9 μg/g fresh weight
